Data on one substance can be found in patent US7094752B2 (Chiron Corporation, priority 1997, dated 2006).

One experiment has as its target T1, sUPAR domain 2–3 (D23) (Homo sapiens, UniProt Q03405).
T1 construct: domains 2 and 3 (amino acids 93–313); made in house; host or cells: baculovirus infected Sf9 insect cells
The experiment can be described thus: Bacteriophage binding to sUPAR domain 2/3. The following applies: phage-displayed peptide. As to the method: FIG. 5. Bacteriophage binding to sUPAR domain 2/3. Phage were added to wells containing sUPAR domain 2/3 immobilized by its epitope tag via protein G and monoclonal antibody to the epitope tag. Wells containing protein G and antibody but no domain 2/3 were included to determine nonspecific phage binding. Urea-eluted phage and the input stocks were titered by plaque formation assay. Results were single point determinations calculated as a percent of the input titer and were repeated in three separate experiments.
It was also shown by the inventors that bacteriophage bound to sUPAR domain 2–3fragment. Protein G, 100μl, 1 mg/ml in 50 mM Na2CO3, pH9.6, was added to MaxiSorp wells, incubated overnight at 4° C. and then washed with PBS/BSA. Fifty μl of monoclonal antibody to the epitope tag EYMPME (SEQ ID NO: 18) was added at 1 mg/ml in PBS/BSA and incubated for 2 hours at room temperature. The wells were washed, recombinant sUPAR domain 2–3 (1.7 μM in PBS/BSA) was added and incubated for 1.5 hours at room temperature. The wells were washed prior to the addition of bacteriophage (approximately 10^8 pfu), and then treated as described in the previous section for binding to suPAR.

Experiment [1] addresses T2, uPA1–48:uPAR complexes binding to vitronectin (Homo sapiens, UniProt Q03405).
T2 construct: sUPAR, soluble truncated form of the urokinase receptor; made in house; host or cells: suPAR: baculovirus-infected Sf9 cells; uPA1-48: recombinant yeast; vitronectin: purified from human plasma
The experiment can be described thus: Vitronectin binding assay (ELISA). The following applies: 20 nM biotinylated suPAR, 20 nM uPA1–48. As to the method:
Vitronectin was purified from human plasma by the method of Yatohgo et al, Cello Struct.and Funct. 13: 281–292 (1988). Purified vitronectin was diluted to 20 μg/ml in PBS containing 1 mM CaCl2 and 0.5 mM MgCl2, dispensed at 50 μl/well into Immulon II wells (Dynatech, Chantilly, Va.), incubated overnight at 4° C. and washed with PBS/BSA. Biotinylated sUPAR was diluted to 20 nM in PBS/BSA, incubated with or without test ligand for 30 minutes at room temperature (22° C.), dispensed at 100 μl/well and incubated for 90 minutes. Wells were then washed and horseradish peroxidase (HRP)-conjugated streptavidin was added at 0.4 μg/ml in PBS/2% BSA for 1 hour followed by washing and addition of 100 μl/well TMB substrate. The color development was stopped with 100 μl of 0.8N H2SO4 and the absorbance at 450 nm measured in a 96 well plate reader (Dynatech, Chantilly, Va.). Antagonistic effects of test ligands were measured as described above except the ligands were incubated with 20 nM biotinylated suPAR in the presence of 20 nM uPA1–48.
In order to analyze the effects of the various peptide ligands on the uPAR:vitronectin interaction, we developed an in vitro ELISA based assay for this interaction, in which biotinylated suPAR and uPA1–48 bind to immobilized, urea purified vitronectin, and the bound sUPAR is detected with HRP conjugated streptavidin. Under the conditions of the assay binding of biotinylated uPAR to vitronectin is strictly dependent on uPA1–48, as shown in FIG. 1.

In the next experiment the test system is nontransfected 293 cells. The experiment can be described thus: Adhesion of nontransfected 293 cells to fibronectin or collagen. The experiment is classed as cell-based. From the text:
To explore whether uPAR binds to integrins, nontransfected 293 cells were allowed to adhere to fibronectin or collagen in the presence of recombinant soluble uPAR (suPAR).

Experiment [2] deals with GPI-uPAR dependent adhesion of 293 cells to vitronectin. The experiment can be described thus: Adhesion of GPI-uPAR expressing 293 cells to vitronectin. The experiment is classed as cell-based. From the text: In order to ascertain whether cytoskeletal connecting elements important to integrin-dependent adhesion were also involved in adhesion mediated by uPAR, embryonic kidney cells (293 cells) were engineered to coexpress uPAR along with a chimeric protein comprised of the β1 cytoplasmic tail fused with the transmembrane domain of […] (CD4). […] Co-expression of uPAR with β1 cytoplasmic domains completely abrogated uPAR-dependent vitronectin adhesion. Clones expressing full length or truncated β1 cytoplasmic tails prepared as in Lukashev et al, J. Biol. Chem. 26: 18311 (1994) were transfected with cDNA for GPI-uPAR and selected as in Wei et al, J. Biol. Chem. 169: 32380 (1994). Chimeric β1 expression was induced by cadmium for 6 hours prior to assaying adhesion to vitronectin at 37° C. Following induction of full length β1 chimerics, essentially no cells were adherent to vitronectin-coated surfaces whereas co-transfectants expressing the truncated β1 adhered avidly.
Cell adhesion assays were conducted to determin whether the observed uPAR/β1/caveolin complexes were functionally relevant.
To test this hypothesis further, a phage display peptide library was screened for uPAR-binding phages. A number of phage peptides were isolated as described in Goodson et al, Proc. Natl. Acad. Sci. U.S.A. 91: 7129 (1994). […]

The target of a further experiment is T3, suPAR (Homo sapiens, UniProt Q03405).
T3 construct: sUPAR, soluble truncated form of the urokinase receptor; made in house; host or cells: baculovirus-infected Sf9 insect cells
Description: SuPAR:1-anilino-8-napthalenesulfonate (ANS) fluorescence. The format is binding. As to conditions: 2 μM sUPAR, 10 μM ANS, 0 to 20 μM competitor. As to the method: Determination of the effect of various peptide ligands on sUPAR/ANS fluorescence was performed following a procedure similar to that of Ploug et al, Biochem. 33: 8991–8997 (1994). Fluorescence emission spectra of sUPAR/ANS solutions with or without competitors were obtained using an Hitachi F-4500 fluorescence spectrophotometer with an excitation wavelength of 386 nm, 5-nm band-pass excitation and emission slits, and a 10 mm path length quartz cuvette. The emission spectra from 400 to 600 nm were recorded. For competition measurements, dilutions of a stock sUPAR/ANS solution were made to give individual 0.5 ml aliquots with a final concentration of 2 μM sUPAR, 10 μM ANS, and 0 to 20 μM competitor in PBS containing 10% DMSO. Fluorescence measurements were made after a one hour incubation at 25° C.

T1 sequence (Q03405 115-335): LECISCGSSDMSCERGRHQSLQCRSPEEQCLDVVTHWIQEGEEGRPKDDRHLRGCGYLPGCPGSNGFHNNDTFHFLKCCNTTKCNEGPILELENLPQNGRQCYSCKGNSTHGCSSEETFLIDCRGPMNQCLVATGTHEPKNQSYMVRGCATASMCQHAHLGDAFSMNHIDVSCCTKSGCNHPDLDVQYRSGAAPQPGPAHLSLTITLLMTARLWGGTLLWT
T2 sequence (Q03405 23-305 limits assumed, one chain of several): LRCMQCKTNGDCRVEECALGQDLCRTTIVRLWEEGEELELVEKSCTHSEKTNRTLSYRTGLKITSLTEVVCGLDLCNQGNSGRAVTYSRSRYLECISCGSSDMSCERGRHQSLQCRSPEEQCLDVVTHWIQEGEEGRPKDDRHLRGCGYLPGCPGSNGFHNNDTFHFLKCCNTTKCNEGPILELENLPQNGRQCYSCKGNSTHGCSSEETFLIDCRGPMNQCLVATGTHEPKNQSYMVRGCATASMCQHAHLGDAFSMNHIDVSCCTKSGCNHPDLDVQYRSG
T3 sequence (Q03405 23-305 limits assumed): as the sequence (Q03405 23-305 limits assumed, one chain of several) above

Take H-AESTYHHLSLGYMYTLN-NH2 [peptide 25]: the “bacteriophage binding to immobilized D23 versus sUPAR” value on sUPAR domain 2–3 (D23) (listed as bacteriophage 25) was “equivalent binding to D23 and suPAR”; at sUPAR domain 2–3 (D23) (listed as clone 25) it was “bind equivalently to the D23 fragment and full-length receptor”. In addition, the “effect on binding of uPA1–48:uPAR complexes to vitronectin” value in experiment [1] is given as “little or no effect”. In addition, in the experiment on nontransfected 293 cells (100 μM peptide), the “reversal of suPAR inhibition of adhesion to fibronectin and collagen” value is recorded as “reversible”. For the same substance, the “adhesion to fibronectin by nontransfected 293 cells” value in the experiment with nontransfected 293 cells (peptide alone) is reported as “no effect”. The same substance showed a half-inhibitory concentration (IC50) in experiment [2] of around 60 µM. Besides, the “effect on ANS fluorescence enhancement in the presence of uPAR” value on suPAR is reported as “no effect”.
